Measurements reported in US20240109865A1, “INDAZOLE COMPOUNDS AS KINASE INHIBITORS” (TYRA BIOSCIENCES, INC., priority 2020, published 2024).
Like-named read-outs stand apart in the source and are kept apart here.

Tests used:
[1] = test system: KG-1 cells (FGFR1-fusion); experiment: KG-1 cancer cell line cell viability assay (CellTiter-Glo 2.0); format: cell-based; settings: Homo sapiens, 72 hours, Cell Titer Glo 2.0
Outline: (§1)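 RT112/84, UM-UC-14 and KG-1 cells (10,000/well, RPMI1640 with 10% FBS) were treated with a 9-dose, 10-fold series starting at 30 μM, in triplicate, for 72 h at 37 °C. ATP was read by CellTiter-Glo 2.0 luminescence relative to DMSO controls, and IC50 was fitted with a 4-parameter sigmoidal model.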

FGFR2 = FGFR2 (Homo sapiens (Human), UniProt P21802); experiment: Kinase assay, binding constants (Kd), kinase-tagged T7 phage, qPCR
Outline: (§2)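 Competition binding: T7 phage-tagged kinase + biotin-ligand beads + compound (11 pts, 3-fold, 0.9% DMSO). Elution 30 min RT with free ligand; qPCR quantitation. Kd via Hill fit, slope −1.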

FGFR3 (V555M) = FGFR3 (V555M) (Homo sapiens (Human), UniProt P22607, V555M); experiment: as above; settings: V555M mutant
Outline: as §2

FGFR1 = FGFR1 (Homo sapiens (Human), UniProt P11362); experiment: as above
Outline: as §2

FGFR4 = FGFR4 (Homo sapiens (Human), UniProt P22455); experiment: as above
Outline: as §2

FGFR3 = FGFR3 (Homo sapiens (Human), UniProt P22607); experiment: as above
Outline: as §2

[2] = test system: UM-UC-14 cells (FGFR3(S249C)); experiment: UM-UC-14 cancer cell line cell viability assay (CellTiter-Glo 2.0); format: cell-based; settings: UMUC14, 72 hours, Cell Titer Glo 2.0
From the text: Experimental Purpose: To detect the change of intracellular ATP by Cell Titer-Glo® and to evaluate the inhibitory effect of the compounds on cancer cell lines by determining the in vitro IC50 value of the compounds.
Cell Titer-Glo® 2.0 Luminescent cell viability assay reagent was purchased from Promega (Madison, WI). RT112/84 and KG-1 cell lines were purchased from American Type Culture Collection (Manassas, VA). UM-UC-14 cell line was purchased from Sigma (St. Louis, MO). RT112/84, UM-UC-14, and KG-1 cells were cultured in RPMI1640 media supplemented with 10% fetal bovine serum. Cultures were maintained at 37° C. in a humidified atmosphere of 5% C02 and 95% air.
Cell Viability Assay Procedure: Cells were plated in 96-well clear bottom/white plates (Corning #3903) at 10,000 cells/well in 100 μl of media, incubated overnight. The next day, test compound DMSO stock solutions were made at 10 mM and 2 μM final concentration. Compounds were then added to cells in a 9-dose, 10-fold dilution series starting at 30 μM with an HP 300e Digital Dispenser (each dose was applied in triplicate). DMSO was backfilled to each well up to 301 nL total volume of test compound+DMSO, and a total of 301 nL DMSO was added to a control/no test compound well in triplicate. The cells in cell culture plates were incubated with the compounds at 37° C. and 5% C02 for 72 hours. Then 50 μl of Cell Titer Glo 2.0 reagent was added to each well of the cell culture plates. The contents were covered from light and mixed on an orbital shaker at room temperature for 10 min. Luminescence was recorded by a Synergy H1 Microplate Reader (Biotek, Winooski, VT). Cells were assessed as a percentage of DMSO only treated control cells. Curves were plotted and IC50 values were calculated using the GraphPad Prism 8 program based on a sigmoidal dose-response equation (4 parameter).

FGFR1-BCR Ba/F3 cells = FGFR1-BCR Ba/F3 cells (Homo sapiens, UniProt P11362); experiment: Ba/F3 cell viability assay (CellTiter-Glo 2.0), FGFR1-BCR Ba/F3; format: cell-based
Outline: (§3)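 IL3-independent Ba/F3 lines driven by FGFR1-BCR or FGFR3-BAIAP2L1 fusions, in RPMI1640/10% FBS. 9-dose 10-fold series from 30 μM, triplicate, 48 h at 37 °C; viability by CellTiter-Glo 2.0 ATP luminescence relative to DMSO control, IC50 from 4-parameter sigmoidal fit.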

[3] = target: FGFR3-BAIAP2L1 Ba/F3 cells (Homo sapiens, UniProt P22607); experiment: Ba/F3 cell viability assay (CellTiter-Glo 2.0), FGFR3-BAIAP2L1 Ba/F3; format: cell-based
Outline: as §3

[4] = test system: RT112/84 cells (FGFR3-fusion); experiment: RT112/84 cancer cell line cell viability assay (CellTiter-Glo 2.0); format: cell-based; settings: Homo sapiens, 72 hours, Cell Titer Glo 2.0
Outline: as §1

[5] = FGFR3 > FGFR1 selectivity ratio in Ba/F3 FGFR fusion cell based assays
[6] = read-out: Ba/F3 Cells FGFR1 (IC50 nM), 48 hours, Cell Titer Glo 2.0
[7] = read-out: Ba/F3 Cells FGFR3 (IC50 nM); FGFR3-BAIAP2L1 Ba/F3 cells, 48 hours, Cell Titer Glo 2.0

FGFR2, sequence (P21802 22-821): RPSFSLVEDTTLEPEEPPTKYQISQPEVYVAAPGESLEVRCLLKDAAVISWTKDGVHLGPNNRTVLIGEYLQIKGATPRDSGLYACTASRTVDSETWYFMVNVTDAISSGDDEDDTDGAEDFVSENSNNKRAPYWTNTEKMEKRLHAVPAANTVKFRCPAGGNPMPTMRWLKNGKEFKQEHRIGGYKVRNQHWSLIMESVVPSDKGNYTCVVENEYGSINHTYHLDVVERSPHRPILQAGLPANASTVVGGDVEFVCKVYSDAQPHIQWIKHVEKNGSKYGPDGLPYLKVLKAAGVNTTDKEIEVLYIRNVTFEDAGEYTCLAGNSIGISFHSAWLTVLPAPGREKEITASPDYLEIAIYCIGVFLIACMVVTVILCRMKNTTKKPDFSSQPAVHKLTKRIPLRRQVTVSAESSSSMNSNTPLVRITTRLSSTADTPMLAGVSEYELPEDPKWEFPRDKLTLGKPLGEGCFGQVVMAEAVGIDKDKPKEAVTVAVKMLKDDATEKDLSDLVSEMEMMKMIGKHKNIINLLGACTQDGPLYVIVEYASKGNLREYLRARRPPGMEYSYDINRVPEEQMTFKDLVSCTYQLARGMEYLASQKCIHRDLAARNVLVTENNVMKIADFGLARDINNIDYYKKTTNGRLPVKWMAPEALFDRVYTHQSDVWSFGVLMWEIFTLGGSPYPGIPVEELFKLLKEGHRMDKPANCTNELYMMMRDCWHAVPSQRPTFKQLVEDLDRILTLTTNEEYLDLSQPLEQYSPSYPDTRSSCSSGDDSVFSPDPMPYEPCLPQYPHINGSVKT
FGFR4, sequence (P22455 22-802): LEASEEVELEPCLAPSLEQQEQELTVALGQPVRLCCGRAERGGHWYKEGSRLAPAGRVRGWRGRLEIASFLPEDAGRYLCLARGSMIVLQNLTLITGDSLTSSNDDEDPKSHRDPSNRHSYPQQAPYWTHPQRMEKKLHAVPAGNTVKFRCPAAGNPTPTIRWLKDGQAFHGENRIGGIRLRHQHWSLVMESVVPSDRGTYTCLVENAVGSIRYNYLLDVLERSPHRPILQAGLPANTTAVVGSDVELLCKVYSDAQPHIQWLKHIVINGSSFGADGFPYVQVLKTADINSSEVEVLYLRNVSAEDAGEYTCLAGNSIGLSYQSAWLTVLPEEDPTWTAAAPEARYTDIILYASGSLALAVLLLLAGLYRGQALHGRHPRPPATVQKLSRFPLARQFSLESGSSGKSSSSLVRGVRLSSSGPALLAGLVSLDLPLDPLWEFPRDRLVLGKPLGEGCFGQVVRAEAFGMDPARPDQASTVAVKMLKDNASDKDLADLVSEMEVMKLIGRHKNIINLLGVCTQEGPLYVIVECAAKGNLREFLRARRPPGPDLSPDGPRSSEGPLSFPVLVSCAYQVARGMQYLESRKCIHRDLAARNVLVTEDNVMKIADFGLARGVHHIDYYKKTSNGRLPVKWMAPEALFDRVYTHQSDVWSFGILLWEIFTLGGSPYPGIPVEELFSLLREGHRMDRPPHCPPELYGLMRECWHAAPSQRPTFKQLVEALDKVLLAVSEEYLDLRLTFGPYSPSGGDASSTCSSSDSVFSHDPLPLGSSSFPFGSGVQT
FGFR1, sequence (P11362 22-822): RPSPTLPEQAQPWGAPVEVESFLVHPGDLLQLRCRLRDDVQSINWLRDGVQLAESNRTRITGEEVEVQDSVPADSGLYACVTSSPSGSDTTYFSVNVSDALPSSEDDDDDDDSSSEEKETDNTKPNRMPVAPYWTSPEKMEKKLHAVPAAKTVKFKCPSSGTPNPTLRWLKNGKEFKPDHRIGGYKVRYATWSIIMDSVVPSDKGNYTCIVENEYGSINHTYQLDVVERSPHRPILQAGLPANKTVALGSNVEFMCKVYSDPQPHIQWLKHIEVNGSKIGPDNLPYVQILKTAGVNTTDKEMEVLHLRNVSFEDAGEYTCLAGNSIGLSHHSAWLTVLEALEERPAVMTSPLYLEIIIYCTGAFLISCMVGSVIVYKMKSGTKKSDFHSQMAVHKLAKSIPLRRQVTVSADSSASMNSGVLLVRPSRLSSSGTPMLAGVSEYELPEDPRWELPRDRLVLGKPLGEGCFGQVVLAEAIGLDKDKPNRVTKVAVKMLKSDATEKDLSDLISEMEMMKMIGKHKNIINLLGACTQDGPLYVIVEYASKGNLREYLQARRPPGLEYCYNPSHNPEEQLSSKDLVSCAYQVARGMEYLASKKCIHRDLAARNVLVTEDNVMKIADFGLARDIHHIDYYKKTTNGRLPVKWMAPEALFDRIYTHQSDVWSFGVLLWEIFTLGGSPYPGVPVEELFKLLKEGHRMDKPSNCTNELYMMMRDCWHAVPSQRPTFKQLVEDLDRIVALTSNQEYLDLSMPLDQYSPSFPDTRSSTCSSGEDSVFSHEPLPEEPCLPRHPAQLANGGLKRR
FGFR1-BCR Ba/F3 cells, sequence (P11362 22-822 limits assumed, change not shown): as the sequence (P11362 22-822) above
FGFR3, sequence (P22607 23-806): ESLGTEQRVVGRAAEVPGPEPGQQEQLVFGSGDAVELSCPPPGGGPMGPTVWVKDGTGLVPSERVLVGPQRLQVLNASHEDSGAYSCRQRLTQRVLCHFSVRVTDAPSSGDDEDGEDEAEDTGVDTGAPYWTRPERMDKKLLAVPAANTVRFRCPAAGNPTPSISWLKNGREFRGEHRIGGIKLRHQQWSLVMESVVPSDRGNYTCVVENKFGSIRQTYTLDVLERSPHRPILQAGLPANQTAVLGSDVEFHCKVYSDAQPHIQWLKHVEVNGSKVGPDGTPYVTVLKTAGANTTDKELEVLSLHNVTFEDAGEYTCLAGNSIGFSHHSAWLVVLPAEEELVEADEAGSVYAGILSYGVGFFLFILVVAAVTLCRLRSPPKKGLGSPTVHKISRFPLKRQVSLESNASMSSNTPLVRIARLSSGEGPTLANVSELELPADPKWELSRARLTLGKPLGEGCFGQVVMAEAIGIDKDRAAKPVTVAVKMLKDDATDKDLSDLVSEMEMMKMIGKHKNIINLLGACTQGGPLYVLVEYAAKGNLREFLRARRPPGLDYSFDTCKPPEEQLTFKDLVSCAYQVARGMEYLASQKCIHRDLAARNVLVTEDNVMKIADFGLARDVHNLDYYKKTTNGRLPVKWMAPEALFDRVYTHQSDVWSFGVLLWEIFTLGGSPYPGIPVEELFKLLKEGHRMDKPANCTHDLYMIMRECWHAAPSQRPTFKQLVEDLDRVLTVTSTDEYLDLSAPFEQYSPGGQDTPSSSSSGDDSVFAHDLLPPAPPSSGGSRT
FGFR3-BAIAP2L1 Ba/F3 cells, sequence (P22607 23-806 limits assumed, change not shown): as the sequence (P22607 23-806) above
FGFR3 (V555M), sequence (P22607 23-806 V555M): as the sequence (P22607 23-806) above, with V533M counted along it

SMILES | IC50 [1] [nM] | Kd (FGFR2) [nM] | Kd (FGFR3 (V555M)) [nM] | Kd (FGFR1) [nM] | Kd (FGFR4) [nM] | Kd (FGFR3) [nM] | IC50 [2] [nM] | IC50 (FGFR1-BCR Ba/F3 cells; 48 hours, Cell Titer Glo 2.0, read-out: Ba/F3 Cells FGFR1 (IC50 nM)) [nM] | IC50 ([3]; FGFR3-BAIAP2L1 Ba/F3 cells, 48 hours, Cell Titer Glo 2.0; read-out: Ba/F3 Cells FGFR3 (IC50 nM)) [nM] | Ba/F3 FGFR1/FGFR3 Selectivity [3, 5] | IC50 [4] [nM] | IC50 (FGFR1-BCR Ba/F3 cells; [6]) [nM] | IC50 [3, 7] [nM]
C[C@@H](Oc1ccc2[nH]nc(-c3ccc(N4CC5CC(C4)N5S(C)(=O)=O)nc3)c2c1)c1c(Cl)cncc1Cl [Example 20, 5-[(1R)-1-(3,5-dichloro-4-pyridyl)ethoxy]-3-[6-(6-methylsulfonyl-3,6-diazabicyclo[3.1.1]heptan-3-yl)-3-pyridyl]-1H-indazole] | 100 to 300 | 20 to 100 | 1 to 20 | 20 to 100 | 1 to 20 | 1 to 20 | 20 to 100 | > 300 | 20 to 100 | 15 | 20 to 100 |  | 
C[C@@H](Oc1ccc2[nH]nc(-c3ccc(N4CCNC5(CC5)C4)nc3)c2c1)c1c(Cl)cncc1Cl [Example 21, 3-[6-(4,7-diazaspiro[2.5]octan-7-yl)-3-pyridyl]-5-[(1R)-1-(3,5-dichloro-4-pyridyl)ethoxy]-1H-indazole] | 20 to 100 | 1 to 20 | 1 to 20 | 1 to 20 | 1 to 20 | 1 to 20 | 1 to 20 |  |  | 13 | 1 to 20 | 100 to 300 | 1 to 20
C[C@@H](Oc1ccc2[nH]nc(-c3ccc(N4CCN(S(C)(=O)=O)C5(CC5)C4)nc3)c2c1)c1c(Cl)cncc1Cl [Example 22, 5-[(1R)-1-(3,5-dichloro-4-pyridyl)ethoxy]-3-[6-(4-methylsulfonyl-4,7-diazaspiro[2.5]octan-7-yl)-3-pyridyl]-1H-indazole] | 20 to 100 | 20 to 100 | 1 to 20 | 20 to 100 | 1 to 20 | 1 to 20 | 1 to 20 |  |  | 11 | 1 to 20 | 100 to 300 | 1 to 20
C[C@@H](Oc1ccc2[nH]nc(-c3ccc(N4CCN(C(=O)N(C)C)C5(CC5)C4)nc3)c2c1)c1c(Cl)cncc1Cl [Example 23, (R)-7-(5-(5-(1-(3,5-dichloropyridin-4-yl)ethoxy)-1H-indazol-3-yl)pyridin-2-yl)-N,N-dimethyl-4,7-diazaspiro[2.5]octane-4-carboxamide] | 100 to 300 | > 300 | 20 to 100 | > 300 | > 300 | 100 to 300 | 1 to 20 |  |  | 16 | 1 to 20 | 100 to 300 | 1 to 20
C[C@@H](Oc1ccc2[nH]nc(-c3ccc(N4CCN(C(N)=O)C5(CC5)C4)nc3)c2c1)c1c(Cl)cncc1Cl [Example 24, 7-[5-[5-[(1R)-1-(3,5-dichloro-4-pyridyl)ethoxy]-1H-indazol-3-yl]-2-pyridyl]-4,7-diazaspiro[2.5]octane-4-carboxamide] | 20 to 100 | 1 to 20 | 1 to 20 | 1 to 20 | 1 to 20 | 1 to 20 | 1 to 20 |  |  | 18 | 1 to 20 | 20 to 100 | 1 to 20
C[C@@H](Oc1ccc2[nH]nc(-c3ccc(N4CCC5(CCCO5)CC4)nc3)c2c1)c1c(Cl)cncc1Cl [Example 26, 8-[5-[5-[(1R)-1-(3,5-dichloro-4-pyridyl)ethoxy]-1H-indazol-3-yl]-2-pyridyl]-1-oxa-8-azaspiro[4.5]decane] | > 300 | 20 to 100 | 1 to 20 | 20 to 100 | 1 to 20 | 1 to 20 | 20 to 100 |  |  | 28 | 20 to 100 | > 300 | 20 to 100
C[C@@H](Oc1ccc2[nH]nc(-c3ccc(N4CCC5(CCNC5=O)CC4)nc3)c2c1)c1c(Cl)cncc1Cl [Example 27, 8-[5-[5-[(1R)-1-(3,5-dichloro-4-pyridyl)ethoxy]-1H-indazol-3-yl]-2-pyridyl]-2,8-diazaspiro[4.5]decan-1-one] | 100 to 300 | 1 to 20 | 1 to 20 | 20 to 100 | 1 to 20 | 1 to 20 | 1 to 20 |  |  | 24 | 1 to 20 | 100 to 300 | 1 to 20
C[C@@H](Oc1ccc2[nH]nc(-c3ccc(N4CCC5(CCOC5)CC4)nc3)c2c1)c1c(Cl)cncc1Cl [Example 28, 8-[5-[5-[(1R)-1-(3,5-dichloro-4-pyridyl)ethoxy]-1H-indazol-3-yl]-2-pyridyl]-2-oxa-8-azaspiro[4.5]decane] | 100 to 300 | 20 to 100 | 1 to 20 | 20 to 100 | 1 to 20 | 1 to 20 | 1 to 20 |  |  | 22 | 1 to 20 | > 300 | 1 to 20
C[C@@H](Oc1ccc2[nH]nc(-c3ccc(N4CCC5(CCN(C)C5)CC4)nc3)c2c1)c1c(Cl)cncc1Cl [Example 32, 8-[5-[5-[(1R)-1-(3,5-dichloro-4-pyridyl)ethoxy]-1H-indazol-3-yl]-2-pyridyl]-2-methyl-2,8-diazaspiro[4.5]decane] | 20 to 100 | 1 to 20 | 1 to 20 | 1 to 20 | 1 to 20 | 1 to 20 | 1 to 20 |  |  | 12 | 1 to 20 | 100 to 300 | 1 to 20
C[C@@H](Oc1ccc2[nH]nc(-c3ccc(N4CCC5(CCCN5C)CC4)nc3)c2c1)c1c(Cl)cncc1Cl [Example 33, 8-[5-[5-[(1R)-1-(3,5-dichloro-4-pyridyl)ethoxy]-1H-indazol-3-yl]-2-pyridyl]-1-methyl-1,8-diazaspiro[4.5]decane] | 20 to 100 | 1 to 20 | 1 to 20 | 1 to 20 | 1 to 20 | 1 to 20 | 1 to 20 |  |  | 16 | 1 to 20 | 20 to 100 | 1 to 20
C[C@@H](Oc1ccc2[nH]nc(-c3ccc(N4CCC5(CC4)C(=O)NCCN5C)nc3)c2c1)c1c(Cl)cncc1Cl [Example 34, 9-[5-[5-[(1R)-1-(3,5-dichloro-4-pyridyl)ethoxy]-1H-indazol-3-yl]-2-pyridyl]-1-methyl-1,4,9-triazaspiro[5.5]undecan-5-one] | 20 to 100 | 1 to 20 | 1 to 20 | 1 to 20 | 1 to 20 | 1 to 20 | 1 to 20 |  |  | 28 | 1 to 20 | 20 to 100 | 1 to 20
C[C@@H](Oc1ccc2[nH]nc(-c3ccc(N4CC5(C4)CN(S(C)(=O)=O)C5)nc3)c2c1)c1c(Cl)cncc1Cl [Example 46, 5-[(1R)-1-(3,5-dichloro-4-pyridyl)ethoxy]-3-[6-(2-methylsulfonyl-2,6-diazaspiro[3.3]heptan-6-yl)-3-pyridyl]-1H-indazole] | 20 to 100 | 1 to 20 | 1 to 20 | 1 to 20 | 1 to 20 | 1 to 20 | 1 to 20 |  |  | 14 | 1 to 20 | 20 to 100 | 1 to 20
